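Interpolation was linear, between the two tested concentrations surrounding the appropriate level; five concentrations were tested over 48 hours in 96-well plates. TGI marks complete inhibition of growth.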
Assays:
Assay in all cases: NCI-60 cell line screen, 48 h
[1] = tested on: UACC-257 melanoma
[2] = tested on: SF-295 CNS
[3] = tested on: NCI-H23 lung
[4] = tested on: CAKI-1 renal
[5] = tested on: K-562 leukemia
[6] = tested on: SN12C renal
[7] = tested on: PC-3 prostate
[8] = tested on: MDA-N
[9] = tested on: OVCAR-3 ovarian
[10] = tested on: HCT-116 colon
[11] = tested on: EKVX NSCLC
[12] = tested on: MCF7 breast
[13] = tested on: HOP-92 NSCLC
[14] = tested on: A498 renal
[15] = tested on: HOP-62 NSCLC
[16] = tested on: OVCAR-5 ovarian
[17] = tested on: SW-620 colon
[18] = tested on: MDA-MB-435
[19] = tested on: RXF 393 renal
[20] = tested on: 786-0 renal
[21] = tested on: RPMI-8226 leukemia
[22] = tested on: SNB-75 CNS
[23] = tested on: M14 melanoma
[24] = tested on: COLO 205 colon
[25] = tested on: SNB-19 CNS
[26] = tested on: IGROV1 ovarian
[27] = tested on: HT29 colon
[28] = tested on: MALME-3M melanoma
[29] = tested on: NCI-H522 lung
[30] = tested on: DU-145 prostate
[31] = tested on: UACC-62 melanoma
[32] = tested on: KM12 colon
[33] = tested on: SF-268 CNS
[34] = tested on: SK-MEL-5 melanoma
[35] = tested on: ACHN renal
[36] = tested on: MOLT-4 leukemia
[37] = tested on: SF-539 CNS
[38] = tested on: A549 NSCLC
[39] = tested on: TK-10 renal
[40] = tested on: BT-549 breast
[41] = tested on: HL-60(TB) leukemia
[42] = tested on: OVCAR-8 ovarian
[43] = tested on: U251 CNS
[44] = tested on: NCI/ADR-RES ovarian
[45] = tested on: SK-MEL-28 melanoma
[46] = tested on: NCI-H460 lung
[47] = tested on: HS 578T breast
[48] = tested on: UO-31 renal
[49] = tested on: CCRF-CEM leukemia
[50] = tested on: NCI-H226 lung
[51] = tested on: OVCAR-4 ovarian
[52] = tested on: T-47D breast
[53] = tested on: HCT-15 colon
[54] = tested on: HCC-2998 colon
[55] = tested on: LOX IMVI melanoma
[56] = tested on: SK-MEL-2 melanoma
[57] = tested on: SK-OV-3 ovarian
[58] = tested on: MDA-MB-231 breast

## COc1ccc(N=NC(=O)NC(CC(C)C)C(=O)NC(CC(C)C)C(=O)O)cc1 (configuration not stated)
[1]
  TGI: > 100 µM
[2]
  TGI: > 100 µM
[3]
  TGI: > 100 µM
[4]
  TGI: > 100 µM
[5]
  TGI: 80.3 µM
[6]
  TGI: > 100 µM
[7]
  TGI: > 100 µM
[8]
  TGI: > 100 µM
[9]
  TGI: > 100 µM
[10]
  TGI: > 100 µM
[11]
  TGI: > 100 µM
[12]
  TGI: > 100 µM
[13]
  TGI: > 100 µM
[14]
  TGI: > 100 µM
[15]
  TGI: > 100 µM
[16]
  TGI: > 100 µM
[17]
  TGI: > 100 µM
[18]
  TGI: > 100 µM
[19]
  TGI: > 100 µM
[20]
  TGI: > 100 µM
[21]
  TGI: > 100 µM
[22]
  TGI: > 100 µM
[23]
  TGI: > 100 µM
[24]
  TGI: 49.5 µM
[25]
  TGI: > 100 µM
[26]
  TGI: > 100 µM
[27]
  TGI: > 100 µM
[28]
  TGI: > 100 µM
[29]
  TGI: > 100 µM
[30]
  TGI: > 100 µM
[31]
  TGI: > 100 µM
[32]
  TGI: > 100 µM
[33]
  TGI: > 100 µM
[34]
  TGI: > 100 µM
[35]
  TGI: 80.2 µM
[36]
  TGI: > 100 µM
[37]
  TGI: 57.6 µM
[38]
  TGI: > 100 µM
[39]
  TGI: > 100 µM
[40]
  TGI: > 100 µM
[41]
  TGI: > 100 µM
[42]
  TGI: > 100 µM
[43]
  TGI: > 100 µM
[44]
  TGI: > 100 µM
[45]
  TGI: > 100 µM
[46]
  TGI: > 100 µM
[47]
  TGI: > 100 µM
[48]
  TGI: > 100 µM
[49]
  TGI: > 100 µM
[50]
  TGI: > 100 µM
[51]
  TGI: > 100 µM
[52]
  TGI: > 100 µM
[53]
  TGI: > 100 µM
[54]
  TGI: > 100 µM
[55]
  TGI: > 100 µM

## C[n+]1c2ccccc2c2/c(=C\C#N)c3ccccc3n21
[1]
  TGI: 20.8 µM
[2]
  TGI: 19.2 µM
[3]
  TGI: 77.1 µM
[4]
  TGI: 95.4 µM
[5]
  TGI: > 100 µM
[6]
  TGI: 38 µM
[8]
  TGI: 18.6 µM
[9]
  TGI: 33.1 µM
[10]
  TGI: 8.45 µM
[11]
  TGI: 6.54 µM
[12]
  TGI: 21.7 µM
[56]
  TGI: 8.52 µM
[14]
  TGI: 82.8 µM
[15]
  TGI: 8.17 µM
[16]
  TGI: 26.1 µM
[17]
  TGI: 11.8 µM
[18]
  TGI: 28.1 µM
[19]
  TGI: 21.9 µM
[20]
  TGI: 14.8 µM
[21]
  TGI: 16.9 µM
[22]
  TGI: 8.16 µM
[23]
  TGI: 18.6 µM
[24]
  TGI: 4.87 µM
[57]
  TGI: 16 µM
[25]
  TGI: > 100 µM
[26]
  TGI: 12.2 µM
[27]
  TGI: 16.5 µM
[28]
  TGI: 7.55 µM
[30]
  TGI: 45.8 µM
[31]
  TGI: 54.2 µM
[32]
  TGI: 31.7 µM
[33]
  TGI: 29.3 µM
[34]
  TGI: 61.3 µM
[35]
  TGI: 18.5 µM
[58]
  TGI: 82.3 µM
[36]
  TGI: 57.7 µM
[37]
  TGI: 17.5 µM
[38]
  TGI: 32.9 µM
[39]
  TGI: 8.46 µM
[40]
  TGI: 8.42 µM
[41]
  TGI: 26.3 µM
[42]
  TGI: 15.9 µM
[43]
  TGI: 13.9 µM
[44]
  TGI: > 100 µM
[45]
  TGI: 30.3 µM
[46]
  TGI: 22.8 µM
[47]
  TGI: > 100 µM
[48]
  TGI: 26.7 µM
[49]
  TGI: 50.2 µM
[50]
  TGI: 17.6 µM
[51]
  TGI: 11.4 µM
[52]
  TGI: 58.5 µM
[53]
  TGI: 97.2 µM
[54]
  TGI: 5.27 µM
[55]
  TGI: 16.6 µM

## CC(C)=NNC1=NC(C)(C)P(=O)(NNc2ncccn2)S1 (configuration not stated)
[1]
  TGI: > 100 µM
[2]
  TGI: > 100 µM
[3]
  TGI: > 100 µM
[4]
  TGI: > 100 µM
[5]
  TGI: > 100 µM
[7]
  TGI: > 100 µM
[8]
  TGI: > 100 µM
[9]
  TGI: > 100 µM
[10]
  TGI: > 100 µM
[11]
  TGI: > 100 µM
[12]
  TGI: > 100 µM
[13]
  TGI: > 100 µM
[56]
  TGI: > 100 µM
[14]
  TGI: > 100 µM
[15]
  TGI: > 100 µM
[16]
  TGI: > 100 µM
[17]
  TGI: > 100 µM
[18]
  TGI: > 100 µM
[19]
  TGI: > 100 µM
[20]
  TGI: > 100 µM
[23]
  TGI: > 100 µM
[57]
  TGI: > 100 µM
[25]
  TGI: > 100 µM
[26]
  TGI: > 100 µM
[27]
  TGI: > 100 µM
[29]
  TGI: > 100 µM
[30]
  TGI: > 100 µM
[31]
  TGI: > 100 µM
[33]
  TGI: > 100 µM
[34]
  TGI: > 100 µM
[35]
  TGI: > 100 µM
[58]
  TGI: > 100 µM
[36]
  TGI: > 100 µM
[37]
  TGI: > 100 µM
[38]
  TGI: > 100 µM
[39]
  TGI: > 100 µM
[40]
  TGI: > 100 µM
[42]
  TGI: > 100 µM
[43]
  TGI: > 100 µM
[45]
  TGI: > 100 µM
[46]
  TGI: > 100 µM
[47]
  TGI: > 100 µM
[48]
  TGI: > 100 µM
[51]
  TGI: > 100 µM
[52]
  TGI: > 100 µM
[53]
  TGI: > 100 µM
[54]
  TGI: > 100 µM

Reference: PubChem BioAssay (NCI)
